Assay results as given in BindingDB's records for patent US20240000767 (Bayer Aktiengesellschaft, 2024).
pIC50: −log10 of the molar value.

Target: T1, Alpha-2C adrenergic receptor (Homo sapiens, UniProt P18825)
T1 sequence (P18825 whole entry): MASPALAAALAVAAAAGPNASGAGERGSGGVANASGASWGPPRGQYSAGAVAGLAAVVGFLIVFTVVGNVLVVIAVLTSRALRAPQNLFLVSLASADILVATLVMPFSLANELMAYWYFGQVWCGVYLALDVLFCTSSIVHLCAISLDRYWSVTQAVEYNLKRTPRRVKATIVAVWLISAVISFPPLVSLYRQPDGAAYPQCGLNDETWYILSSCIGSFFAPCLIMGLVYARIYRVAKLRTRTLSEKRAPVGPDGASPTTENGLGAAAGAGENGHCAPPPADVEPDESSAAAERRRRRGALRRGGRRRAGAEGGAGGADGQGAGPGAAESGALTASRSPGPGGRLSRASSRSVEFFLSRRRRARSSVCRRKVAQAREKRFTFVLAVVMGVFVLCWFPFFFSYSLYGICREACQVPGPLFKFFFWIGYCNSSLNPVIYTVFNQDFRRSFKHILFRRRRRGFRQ
Assay: In Vitro Radioligand Binding Assay
Protocol: In Vitro Radioligand Binding Studies for Determination of the Dissociation Constants K1 at the Human Adrenoreceptor ADRA2C (Eurofins Panlabs Discovery Services, Taiwan, Ltd)A competition assay based on [3H] rauwolscine as radioliganden was used to determine the binding affinity of the test substances at the human ADRA2C receptor.To configure the competition assay, the equilibrium dissociation constant Kd of the radioligand [3H] rauwolscine was determined in a saturation experiment. To this end, homogenates of CHO-K1 cells recombinantly expressing the human ADRA2C receptor were incubated with increasing concentrations of the radiotracers for 1 h at 4° C. in binding buffer (50 mM Tris-HCl, 1 mM EDTA, pH 7.4). Unspecific binding was determined by addition of an excess of the not radioactively labelled ligand prazosin (10 μM). The radioactivity was determined in a scintiation counter.The competition experiments were carried out in the presence of 0.5 nM [3H] rauwolscine and increasing concentrations of the test substances to be characterized under the conditions described above.

| pIC50 | SMILES |
| --- | --- |
| 5.17 | C[C@@H]1CCCN(C2CCN(c3ncc(C(=O)NCc4cc(C(F)(F)F)ccn4)s3)CC2)C1 [US20240000767, Example 18] |
| 7.52 | C[C@@H]1CCCN(C2CCN(c3nc(Br)c(C(=O)NCc4ncc(F)cc4F)s3)CC2)C1 [US20240000767, Example 119] |
